Reference: article PMC9023544, “Ketone-selenoesters as potential anticancer and multidrug resistance modulation agents in 2D and 3D ovarian and breast cancer in vitro models” (Scientific Reports, 2022)
Counter-ions that a name gives are not always drawn. Like-named read-outs stand apart in the source and are kept apart here.

How the values were obtained:
[1] = tested on: HOC (human parental ovarian adenocarcinoma, A2780); test: Cytotoxic activity, 2D, resazurin, 72 h; assay type: cell-based; conditions: for IC50: 2D, 72 h, mean ± SEM, n=3, read-out: HOC IC50; for SI HEK293/HOC: IC50 HEK293 / IC50 HOC
Description: (§1) The cytotoxic potential of selenoesters was tested on several cancer cell lines—HOC (human parental ovarian adenocarcinoma, HOC, A2780, Sigma-Aldrich), HOC/ADR (sub-line resistant to Adriamycin, A2780/ADR, Sigma-Aldrich), MCF-7 (human breast adenocarcinoma, ATCC®, HTB-22TM), MCF-7/PAX (resistant sub-line established by gradual adaptation of parental cells to increased concentration of paclitaxel; kindly provided by Division of Cell and Molecular Biology, Third Faculty of Medicine, Charles University, Czech Republic) and on one non-cancerous cell line—HEK293 (human embryonic kidney cell line, Leibniz Institute, DSMZ-German Collection of Microorganisms and Cell Cultures GmbH). All mentioned cell lines were authenticated using short tandem repeat (STR) profiling. Cell lines were cultivated in DMEM medium (10% FBS, 1× antibiotic antimycotic solution), except for HEK293 cell line which was cultivated without antibiotics. In case of the resistant cell lines, the medium was supplemented with a required concentration of cytostatics to maintain resistance (HOC/ADR—100 nM Adriamycin; MCF-7/PAX—300 nM paclitaxel). All cells were cultivated in a CO2 incubator (5% CO2, 37 °C, Thermo Fisher Scientific).
(§2) For the experiment, the cells at passage number 5–20 were seeded at a 1 × 10^5 cells/mL concentration into 96-well plates to 100 µL final volume. The final concentration range of the compounds was 0.63–20 µM. After an incubation of 72 h, the plates were washed 1× with PBS and resazurin solution (0.03 mg/mL in 1× PBS) was added. After 1 h of incubation, the fluorescence signal was recorded (ex./em. 560/590 nm).
(§3) The selectivity index (SI) was determined as the ratio of IC50 value for the non-cancerous cells to IC50 for the cancer cell line. For resistant cell lines, the collateral sensitivity (CS) was calculated as the ratio of IC50 value in sensitive tumour cells to IC50 in the resistant cancer cell line. In both cases, the selectivity is considered as: (1) strongly selective when SI or CS value is above 6, (2) moderately selective when SI or CS is between 3 and 6, (3) slightly selective when SI or CS is between 1 and 3 and (4) non-selective when SI or CS is less than 1[23].

[2] = tested on: HOC/ADR (sub-line resistant to Adriamycin, A2780/ADR); test: Cytotoxic activity, 2D, resazurin, 72 h; assay type: cell-based, human; conditions: for IC50 / IC10: Homo sapiens, A2780 ADR, 72 h; for IC50: 2D, mean ± SEM, n=3, read-out: HOC/ADR IC50; for IC10: HOC/ADR, concentration that should not decrease viability under 90%, read-out: IC10 of compounds; for SI HEK293/HOC/ADR: IC50 HEK293 / IC50 HOC/ADR; for CS (collateral sensitivity index): IC50 HOC / IC50 HOC/ADR
Description: as §1, §2, §3

[3] = tested on: HOC/ADR; test: Sensitization of MDR cell line to Adriamycin; assay type: cell-based, human; conditions: for Fold change: IC50 of Adriamycin / IC50 of Adriamycin with IC10 dose of compound; for increase of the IC50 of Adriamycin: IC10 dose of compound
Description: To determine the sensitization potential of compounds, HOC/ADR and MCF-7/PAX were used. Based on the cytotoxic potential of the compounds against several cancer and non-cancerous cell lines (Table 1), the concentrations of applied compounds were adjusted. IC10 values was considered as the concentrations, which should not decrease the cell viability under 90%. After the addition of compounds, Adriamycin (concentration range 0.1–20 µM) and paclitaxel (concentration range 0.1–10 µM) were added to HOC/ADR and MCF-7/PAX, respectively. The sensitization potential of the compounds was determined as the ratio of the IC50 of cytostatic agent (Adriamycin/paclitaxel) to the IC50 of cytostatic agent affected by the compound in concentration corresponding to the IC10 value. Fold change greater than 1 indicated synergic effect of cytostatic agent and the tested compound.
After that, the plates were washed 1× with PBS and fresh DMEM medium supplemented with tested compounds at final concentration corresponding their IC10 value was added, except for positive control wells. Subsequently, Adriamycin (concentration range 0.1–20 µM) or paclitaxel (concentration range 0.1–10 µM) was added to the appropriate cell line for 72 h. After incubation, the cells were washed 1× with PBS and the resazurin solution (0.03 mg/mL) was added to evaluate the cell viability as described above. IC50 values of cytostatics were calculated for both the control and compounds; a fold change was counted up. When this fold change is higher than 1 indicates a synergism between the tested cytostatic agent and the compound, while a fold change lower than 1 means an antagonism. Fold change=IC50value of cytostatic treated cells only/IC50value of cytostatic treated cells in addition of the compound

[4] = tested on: MCF-7 (human breast adenocarcinoma); test: Cytotoxic activity, 2D, resazurin, 72 h; assay type: cell-based; conditions: for IC50: Homo sapiens, MCF7, 2D, 72 h, mean ± SEM, n=3, read-out: MCF-7 IC50; for SI HEK293/MCF-7: IC50 HEK293 / IC50 MCF-7
Description: as §1, §2, §3

[5] = tested on: MCF-7/PAX (paclitaxel-resistant sub-line); test: Cytotoxic activity, 2D, resazurin, 72 h; assay type: cell-based, human; conditions: for IC50: Homo sapiens, MCF7, 2D, 72 h, mean ± SEM, n=3, read-out: MCF-7/PAX IC50; for SI HEK293/MC7-7/PAX: IC50 HEK293 / IC50 MCF-7/PAX; for CS (collateral sensitivity index): IC50 MCF-7 / IC50 MCF-7/PAX
Description: as §1, §2, §3

[6] = tested on: HEK293 (human embryonic kidney cell line); test: Cytotoxic activity, non-cancerous cell line, resazurin, 72 h; assay type: cell-based; conditions: Homo sapiens, HEK293; 72 h, mean ± SEM, n=3
Description: as §1, §2, §3

Row | SMILES | IC50 ([1]; Homo sapiens, A2780, 72 h) [nM] | IC50 [2] [nM] | IC50 ([3]; Homo sapiens, Adriamycin 0.1–20 µM with IC10 dose of compound, 72 h, ADR row = Adriamycin alone) [nM] | IC50 [1] [nM] | SI HEK293/HOC [1] | IC50 [4] [nM] | SI HEK293/MCF-7 [4] | IC10 [2] [nM] | SI HEK293/HOC/ADR [2] | CS (collateral sensitivity index) [2] | IC50 [5] [nM] | SI HEK293/MC7-7/PAX [5] | CS (collateral sensitivity index) [5] | IC50 [6] [nM] | Fold change [3] | increase of the IC50 of Adriamycin [3] | collateral sensitivity against paclitaxel-resistant breast carcinoma (in words) [5] | collateral sensitivity against HOC/ADR (in words) [2]
1 | COc1cccc2c1C(=O)c1c(O)c3c(c(O)c1C2=O)C[C@@](O)(C(=O)CO)C[C@@H]3O[C@H]1C[C@H](N)[C@H](O)[C@H](C)O1 [ADR, doxorubicin hydrochloride, reference compound] | 10 | 2500 | 2500 |  |  |  |  |  |  |  |  |  |  |  |  |  |  | 
2 | CC(=O)C[Se]C(=O)c1cccs1 [K1] | < 1000 | 2300 |  | 800 | 1.2 ± 0.1 | 1600 ± 100 | 0.6 ± 0.1 | 1500 | 0.4 ± 0.0 | 0.4 ± 0.0 | 2200 ± 200 | 0.4 ± 0.0 | 0.7 ± 0.1 | 1000 ± 100 | (1.3 ± 0.1)× |  |  | 
3 | CC(=O)C[Se]C(=O)c1ccccc1F [K2] | < 1000 | 2400 ± 100 |  | 800 ± 100 | 1.6 ± 0.1 | 1900 ± 100 | 0.7 ± 0.1 | 1000 | 0.5 ± 0.0 | 0.3 ± 0.0 | 1900 ± 100 | 0.6 ± 0.1 | 1.0 ± 0.1 | 1200 ± 100 | (1.2 ± 0.0)× |  |  | 
4 | CC(=O)C[Se]C(=O)c1cccc(C(F)(F)F)c1 [K5] | 1100 | 2200 ± 300 |  |  | 1.5 ± 0.0 | 1600 ± 100 | 1.0 ± 0.1 | 1500 | 0.7 ± 0.1 | 0.5 ± 0.1 | 2800 ± 100 | 0.6 ± 0.0 | 0.6 ± 0.1 | 1600 | (0.5 ± 0.1)× | almost twofold |  | 
5 | CC(=O)C[Se]C(=O)c1ccc(F)c(Cl)c1 [K6] | < 1000 | 2600 ± 100 |  | 700 ± 100 | 2.7 ± 0.4 | 2100 ± 200 | 0.9 ± 0.2 | 1300 | 0.8 ± 0.1 | 0.3 ± 0.0 | 2300 ± 300 | 0.9 ± 0.1 | 0.9 ± 0.1 | 2000 ± 100 | (1.1 ± 0.1)× |  |  | 
6 | CC(=O)C[Se]C(=O)c1cc(F)c(F)cc1F [K8] | 2100 ± 100 | 2700 |  |  | 0.9 ± 0.1 | 2600 ± 400 | 0.8 ± 0.1 | 3000 | 0.7 ± 0.0 | 0.8 ± 0.1 | 2000 ± 100 | 1.0 ± 0.2 | 1.3 ± 0.3 | 2000 ± 200 | (1.1 ± 0.1)× |  | slight collateral sensitivity | 
7 | N#CC[Se]C(=O)c1cccs1 [N1] | 2700 ± 300 | 4200 ± 200 |  |  | 2.2 ± 0.4 | 3100 ± 200 | 2.0 ± 0.3 | 2500 | 1.4 ± 0.2 | 0.7 ± 0.1 | 2500 | 2.4 ± 0.4 | 1.2 ± 0.2 | 6000 ± 600 | (0.3 ± 0.1)× | 3.5 fold | slight collateral sensitivity | 
8 | N#CC[Se]C(=O)c1cccc(F)c1 [N2] | 7100 ± 200 | 4700 ± 100 |  |  | 1.1 ± 0.1 | 2600 ± 100 | 3.0 ± 0.2 | 3000 | 1.7 ± 0.1 | 1.5 ± 0.1 | 2500 ± 300 | 3.1 ± 0.2 | 1.0 ± 0.1 | 7800 ± 200 | (1.2 ± 0.1)× |  |  | slight collateral sensitivity
9 | N#CC[Se]C(=O)c1ccc(Br)cc1 [N3] | 6500 ± 300 | 5200 ± 100 |  |  | 1.2 ± 0.1 | 2300 ± 500 | 3.5 ± 0.9 | 3100 | 1.5 ± 0.1 | 1.3 ± 0.1 | 2700 ± 200 | 3.0 ± 0.6 | 0.9 ± 0.3 | 8000 ± 300 | (1.3 ± 0.0)× |  |  | slight collateral sensitivity
10 | N#CC[Se]C(=O)c1ccccc1C(F)(F)F [N4] | 2400 ± 100 | 3700 ± 200 |  |  | 2.2 ± 0.2 | 2100 ± 100 | 2.5 ± 0.2 | 2400 | 1.4 ± 0.1 | 0.6 ± 0.1 | 2400 ± 200 | 2.1 ± 0.2 | 0.9 ± 0.1 | 5200 ± 300 | (1.3 ± 0.1)× |  |  | 
11 | N#CC[Se]C(=O)c1cccc(C(F)(F)F)c1 [N5] | 2300 ± 100 | 4500 ± 200 |  |  | 2.7 ± 0.2 | 2500 ± 200 | 2.4 ± 0.3 | 2500 | 1.3 ± 0.1 | 0.5 ± 0.1 | 2700 ± 200 | 2.3 ± 0.2 | 0.9 ± 0.2 | 6000 ± 200 | (1.2 ± 0.2)× |  |  | 
12 | N#CC[Se]C(=O)c1ccc(F)c(Cl)c1 [N6] | 2400 ± 200 | 3600 |  |  | 2.1 ± 0.2 | 1700 | 2.9 ± 0.1 | 2600 | 1.4 ± 0.0 | 0.7 ± 0.1 | 1900 ± 100 | 2.6 ± 0.1 | 0.9 ± 0.0 | 4900 ± 100 | (0.4 ± 0.0)× | almost threefold |  | 
13 | CC(=O)O[C@H]1C(=O)[C@@]2(C)[C@H]([C@H](OC(=O)c3ccccc3)[C@]3(O)C[C@H](OC(=O)[C@H](O)[C@@H](NC(=O)c4ccccc4)c4ccccc4)C(C)=C1C3(C)C)[C@]1(OC(C)=O)CO[C@@H]1C[C@@H]2O [PAX, paclitaxel, reference compound] |  |  |  |  |  | 30 |  |  |  |  | 1500 |  |  |  |  |  |  | 
